Drawing on patent US7855205B2, “Pyrimidinyl substituted fused-pyrrolyl compounds useful in treating kinase disorders” (Janssen Pharmaceutica NV, priority 2004, dated 2010), this text covers IC50 for 13 compounds.

One assay deals with T1, VEGF-R2 (Rattus norvegicus, UniProt O08775).
T1 construct: polyhistidine (N)
Kind of assay: VEGF-R2 Screening Assay. Type of assay: biochemical. To be noted: 33P-γ-ATP incorporation, 10 μM ATP. As to the method:
Then 1 μL of test compound stock in 100% DMSO was added to the wells resulting in a final concentration of 1% DMSO in the reaction with a 100 μL final reaction volume. The CDK1:Cyclin-B protein was then diluted in 50 mM Tris-HCl pH=8.0, 0.1% BSA at a concentration of 1 ng per μL and 30 μL (30 ng enzyme per test well) was added to each well to initiate the reaction. The reaction was incubated for one hour at 30° C. At the end of the 1 h incubation, the reaction was terminated by aspirating the mixture from the plate and washing the wells twice with PBS containing 100 mM EDTA. The histone-H1 biotinylated peptide substrate became immobilized on the Flashplate™ and the incorporation of ^33P-γ-ATP was measured by reading the plate on a scintillation counter. Inhibition of the enzymatic activity of CDK1 was measured by observing a reduced amount of ^33P-γ-ATP incorporated into the immobilized peptide. The VEGF-R kinase assay was carried out using the CDK kinase assay procedure except that the enzyme was replaced with the VEGF-R2 fusion protein containing a polyhistidine tag at the N-terminus followed by amino acids 786-1343 of the rat VEGF-R2 kinase domain (GenBank Accession #U93306).

In the next assay the test system is A375 malignant melanoma. The assay can be described thus: Inhibition of cell proliferation (14C-thymidine incorporation), A375. Type of assay: cell-based, human. To be noted: Homo sapiens, A-375. Here is the method: (§1) The ability of a test compound to inhibit the proliferation of cell growth was determined by measuring incorporation of ^14C-labelled thymidine into newly synthesized DNA within the cells. This method was used on cell lines derived from carcinomas originating from several tissues such as HeLa cervical adenocarcinoma (American Type Culture Collection (ATCC), Virginia, Cat. #CCL-2), A375 malignant melanoma (ATCC CRL-1619), HCT-116 colon carcinoma (CCL-247). In this way the effect of a compound on cell growth of cells with many different phenotypes can be determined. Cells were trypsinized and counted and 3000-8000 cells were added to each well of a 96-well CytoStar tissue culture treated scintillating microplate (Amersham #RPNQ0160) in complete medium in a volume of 100 μL. Cells were incubated for 24 hours in complete medium at 37° C. in an atmosphere containing 5% CO2.
(§2) Next, 1 μL of test compound in 100% DMSO was added to the wells of the plate. DMSO only was added to control wells. Cells were incubated for 24 more hours in complete medium at 37° C. in an atmosphere containing 5% CO2. Methyl ^14C-thymidine 56 mCi/mmol (NEN #NEC568 or Amersham #CFA532) was diluted in complete medium and 0.2 uCi/well was added to each well of the CytoStar plate in a volume of 20 μl. The plate was incubated for 24 hours at 37° C. plus 5% CO2 in drug plus ^14C-thymidine. The contents of the plate discarded into a ^14C radioactive waste container by inverting the plate and the plate was washed twice with 200 μL PBS.
(§3) 200 μL of PBS is added to each well. The top of the plate was sealed with a transparent plate sealer and a white plate backing sealer (Packard #6005199) was applied to the bottom of the plate. The degree of methyl ^14C-thymidine incorporation was quantified on a Packard Top Count.

For another assay, the system named is HCT-116 colon carcinoma. The assay can be described thus: Inhibition of cell proliferation (14C-thymidine incorporation), HCT-116. Type of assay: cell-based. Conditions: Homo sapiens, HCT-116, HCT116. As to the method:
as §1, §2, §3

Assay [1] relates to HeLa cervical adenocarcinoma. Kind of assay: Inhibition of cell proliferation (14C-thymidine incorporation), HeLa.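 Further: HeLa cells in 96-well scintillating plates, compound for 24 h then 24 h more with 14C-thymidine, counting label built into new DNA against DMSO-only control wells.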 Type of assay: cell-based. To be noted: Homo sapiens.
A further assay has as its target T2, Aurora-A (Mus musculus, UniProt P97477).
T2 construct: made in house; host or cells: sf9 insect cells
T2 sequence (P97477 1-395): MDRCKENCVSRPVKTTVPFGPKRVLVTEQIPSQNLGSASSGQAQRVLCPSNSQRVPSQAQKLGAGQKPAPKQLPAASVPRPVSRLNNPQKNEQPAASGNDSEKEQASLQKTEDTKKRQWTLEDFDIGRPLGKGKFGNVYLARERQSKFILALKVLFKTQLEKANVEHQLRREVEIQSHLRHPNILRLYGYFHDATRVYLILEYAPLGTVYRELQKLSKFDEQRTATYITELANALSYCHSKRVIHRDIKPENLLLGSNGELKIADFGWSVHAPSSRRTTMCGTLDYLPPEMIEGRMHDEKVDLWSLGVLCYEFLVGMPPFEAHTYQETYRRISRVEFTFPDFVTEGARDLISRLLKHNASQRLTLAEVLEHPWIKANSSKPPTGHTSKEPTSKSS
The assay can be described thus: Aurora-A Screening Assay. Type of assay: biochemical, murine. To be noted: 33P-γ-ATP incorporation, 10 μM ATP. As to the method: (§4) A kinase reaction mixture was prepared containing 50 mM Tris-HCl pH=8, 10 mM MgCl2, 0.1 mM […], 1 mM DTT, 10 μM ATP, 0.025 μM biotinylated histone-HI peptide substrate and […] per well ^33P-γ-ATP (2000-3000 Ci/mmol). 70 μL of the kinase reaction mixture was dispensed into the well of a streptavidin coated FlashPlate™ (Cat. # SMP103, NEN, Boston, Mass.). Then 1 μL of test compound stock in 100% DMSO was added to the wells resulting in a final concentration of 1% DMSO in the reaction with a 100 μL final reaction volume.
(§5) The CDK1:Cyclin-B protein was then diluted in 50 mM Tris-HCl pH=8.0, 0.1% BSA at a concentration of 1 ng per μL and 30 μL (30 ng enzyme per test well) was added to each well to initiate the reaction. The reaction was incubated for one hour at 30° C. At the end of the 1 h incubation, the reaction was terminated by aspirating the mixture from the plate and washing the wells twice with PBS containing 100 mM EDTA. The histone-H1 biotinylated peptide substrate became immobilized on the Flashplate™ and the incorporation of ^33P-γ-ATP was measured by reading the plate on a scintillation counter. Inhibition of the enzymatic activity of CDK1 was measured by observing a reduced amount of ^33P-γ-ATP incorporated into the immobilized peptide.
The Aurora-A kinase assay was carried out using the CDK kinase assay procedure except that the enzyme was replaced with the full length protein encoding the murine Aurora-A (Accession# GB BC014711) expressed and purified from sf9 insect cells.
(§6) • VEGF-R2, HER2 and (Biotin)[…]-Amide • RET kinases • CDK1 (Biotin)[…]-Amide • Aurora-A kinase Biotin-[…]-Amide

The target in the next assay is T3, CDK1:Cyclin-B (Homo sapiens, UniProt P06493).
T3 construct: purchased New England Biolabs, Beverly, Mass; 6020; host or cells: insect cells
T3 sequence (P06493 whole entry): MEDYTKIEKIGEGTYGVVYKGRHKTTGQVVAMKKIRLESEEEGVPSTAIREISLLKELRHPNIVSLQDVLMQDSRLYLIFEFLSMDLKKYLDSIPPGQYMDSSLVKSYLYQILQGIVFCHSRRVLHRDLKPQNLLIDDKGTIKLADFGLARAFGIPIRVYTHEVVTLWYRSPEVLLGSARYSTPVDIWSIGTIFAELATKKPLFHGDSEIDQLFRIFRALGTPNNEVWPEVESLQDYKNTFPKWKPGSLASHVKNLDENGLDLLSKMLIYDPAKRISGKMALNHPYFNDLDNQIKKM
T3 sequence (P14635 whole entry partner): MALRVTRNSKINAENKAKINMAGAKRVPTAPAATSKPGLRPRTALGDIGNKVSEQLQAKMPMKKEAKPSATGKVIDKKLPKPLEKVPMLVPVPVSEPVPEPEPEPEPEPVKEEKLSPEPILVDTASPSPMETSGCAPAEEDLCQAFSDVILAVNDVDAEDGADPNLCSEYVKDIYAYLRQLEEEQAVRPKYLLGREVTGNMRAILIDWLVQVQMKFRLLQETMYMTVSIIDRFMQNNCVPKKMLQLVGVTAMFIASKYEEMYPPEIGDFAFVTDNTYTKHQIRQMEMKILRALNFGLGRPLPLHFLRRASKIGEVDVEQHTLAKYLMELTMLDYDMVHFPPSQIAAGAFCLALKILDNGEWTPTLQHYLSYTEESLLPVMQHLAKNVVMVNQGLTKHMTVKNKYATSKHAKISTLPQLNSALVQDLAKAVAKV
Kind of assay: CDK1 Screening Assay. To be noted: 33P-γ-ATP incorporation, 10 μM ATP. Type of assay: biochemical. Here is the method:
as §4, §5
The CDK1 used was isolated from insect cells expressing both the human CDK1 catalytic subunit and its positive regulatory subunit cyclin B (New England Biolabs, Beverly, Mass., Cat. #6020).
as §6

T1 sequence (O08775 786-1343): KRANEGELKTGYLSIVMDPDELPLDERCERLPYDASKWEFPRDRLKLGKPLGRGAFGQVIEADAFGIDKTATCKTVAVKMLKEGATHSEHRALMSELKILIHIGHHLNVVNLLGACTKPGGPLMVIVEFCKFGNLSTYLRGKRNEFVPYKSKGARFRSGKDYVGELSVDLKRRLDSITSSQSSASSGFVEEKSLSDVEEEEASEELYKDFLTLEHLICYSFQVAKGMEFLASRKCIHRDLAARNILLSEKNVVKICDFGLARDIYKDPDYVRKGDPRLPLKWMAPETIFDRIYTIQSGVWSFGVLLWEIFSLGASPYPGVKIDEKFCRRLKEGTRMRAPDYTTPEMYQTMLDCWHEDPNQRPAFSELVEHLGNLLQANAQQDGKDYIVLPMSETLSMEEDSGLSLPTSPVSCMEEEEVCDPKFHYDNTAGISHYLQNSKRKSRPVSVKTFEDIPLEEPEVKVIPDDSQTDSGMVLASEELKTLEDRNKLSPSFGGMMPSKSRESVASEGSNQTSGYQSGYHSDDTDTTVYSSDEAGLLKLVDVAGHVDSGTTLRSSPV

Turning to `Fc1ccccc1Nc1nccc(-c2c[nH]c3ncccc23)n1` [Cpd 31, (2-Fluorophenyl)-[4-(1H-pyrrolo[2,3-b]pyridin-3-yl)-pyrimidin-2-yl]-amine], the IC50 against VEGF-R2 was found to be 1 µM; in the assay on A375 malignant melanoma it was 0.11 µM; in the assay on HCT-116 colon carcinoma, 0.105 µM; in assay [1] it was 0.0992 µM; on Aurora-A, 0.1 µM; at CDK1:Cyclin-B, 0.046 µM.

As for `Cc1cc(Br)ccc1Nc1nccc(-c2c[nH]c3ncccc23)n1` [Cpd 41, (4-Bromo-2-methylphenyl)-[4-(1H-pyrrolo[2,3-b]pyridin-3-yl)-pyrimidin-2-yl]-amine], the IC50 is 1.64 µM against VEGF-R2; 0.042 µM in the assay with A375 malignant melanoma; 0.0132 µM in the assay with HCT-116 colon carcinoma; 0.0101 µM in assay [1]; 0.182 µM on Aurora-A; 0.0063 µM against CDK1:Cyclin-B.

For the compound `OCC[C@H]1CC[C@H](Nc2nccc(-c3c[nH]c4ncccc34)n2)CC1` [Cpd 77, trans-2-{4-[4-(1H-pyrrolo[2,3-b]pyridin-3-yl]-pyrimidin-2-ylamino]-cyclohexyl}-ethanol], the IC50 came to 3.57 µM against VEGF-R2; 0.00616 µM in the assay with A375 malignant melanoma; 0.00762 µM with HCT-116 colon carcinoma; 0.00598 µM in assay [1]; 0.374 µM against Aurora-A; 0.0028 µM against CDK1:Cyclin-B.

For `NC1CCN(c2nccc(-c3c[nH]c4ncccc34)n2)CC1` [Cpd 62, 1-[4-(1H-pyrrolo[2,3-b]pyridin-3-yl)-pyrimidin-2-yl]-piperidin-4-ylamine], the IC50 came out at 2.67 µM against VEGF-R2; 0.622 µM in the assay with A375 malignant melanoma; 0.525 µM in the assay on HCT-116 colon carcinoma; 1.08 µM in assay [1]; 0.762 µM against Aurora-A; 0.5 µM against CDK1:Cyclin-B.

For `c1cnc2[nH]cc(-c3ccnc(N[C@H]4CC5CCC4C5)n3)c2c1` (stereo partly drawn) [Cpd 59, (2S)-Bicyclo[2.2.1]hept-2-yl-[4-(1H-pyrrolo[2,3-b]pyridin-3-yl)-pyrimidin-2-yl]-amine], the IC50 on VEGF-R2 was 0.55 µM; in the assay with A375 malignant melanoma, 0.251 µM; in the assay on HCT-116 colon carcinoma, 0.379 µM; in assay [1], 0.291 µM; against Aurora-A, 0.437 µM; against CDK1:Cyclin-B, 0.062 µM.

With `Oc1ccccc1Nc1nccc(-c2c[nH]c3ncccc23)n1` [Cpd 30, (2-Hydroxyphenyl)-[4-(1H-pyrrolo[2,3-b]pyridin-3-yl)-pyrimidin-2-yl]-amine], the IC50 on VEGF-R2 was 0.049 µM; in the assay with A375 malignant melanoma, 1.65 µM; in the assay on HCT-116 colon carcinoma it was 0.652 µM; in assay [1], 0.956 µM; against Aurora-A, 0.289 µM; against CDK1:Cyclin-B, 0.139 µM.

As for `CN1CCC(Nc2nccc(-c3c[nH]c4ncccc34)n2)CC1` [Cpd 61, (1-Methylpiperidin-4-yl)-[4-(1H-pyrrolo[2,3-b]pyridin-3-yl)-pyrimidin-2-yl]-amine], the IC50 against VEGF-R2 was found to be 10 µM; with A375 malignant melanoma it was 0.0214 µM; in the assay with HCT-116 colon carcinoma, 0.0153 µM; in assay [1] it was 0.026 µM; against Aurora-A it was 2.25 µM; against CDK1:Cyclin-B, 0.129 µM.

`c1cnc2[nH]cc(-c3ccnc(NCC4CCCCC4)n3)c2c1` [Cpd 16, Cyclohexylmethyl-[4-(1H-pyrrolo[2,3-b]pyridin-3-yl)-pyrimidin-2-yl]-amine]: the IC50 was 10 µM on VEGF-R2; 0.604 µM in the assay on A375 malignant melanoma; 0.41 µM in the assay on HCT-116 colon carcinoma; 0.368 µM in assay [1]; 0.636 µM on Aurora-A; 0.151 µM at CDK1:Cyclin-B.

With `CC1CCC(Nc2nccc(-c3c[nH]c4ncccc34)n2)CC1` (mixture of isomers) [Cpd 17, (4-Methyl-cyclohexyl)-[4-(1H-pyrrolo[2,3-b]pyridin-3-yl)-pyrimidin-2-yl]-amine], the IC50 worked out at 3.81 µM against VEGF-R2; 0.014 µM with A375 malignant melanoma; 0.0208 µM with HCT-116 colon carcinoma; 0.0243 µM in assay [1]; 0.312 µM against Aurora-A; 0.012 µM at CDK1:Cyclin-B.

Regarding `COc1ccc(Nc2nccc(-c3c[nH]c4ncccc34)n2)c(C)c1` [Cpd 27, (4-Methoxy-2-methylphenyl)-[4-(1H-pyrrolo[2,3-b]pyridin-3-yl)-pyrimidin-2-yl]-amine], the IC50 at VEGF-R2 was 1 µM; in the assay with A375 malignant melanoma, 0.0045 µM; in the assay on HCT-116 colon carcinoma it was 0.00639 µM; in assay [1] it was 0.0072 µM; against Aurora-A, 0.357 µM; at CDK1:Cyclin-B, 0.002 µM.

On to `Brc1ccccc1Nc1nccc(-c2c[nH]c3ncccc23)n1` [Cpd 28, (2-Bromophenyl)-[4-(1H-pyrrolo[2,3-b]pyridin-3-yl)-pyrimidin-2-yl]-amine], for which the IC50 on VEGF-R2 was found to be 1 µM; in the assay with A375 malignant melanoma, 0.0676 µM; in the assay on HCT-116 colon carcinoma, 0.118 µM; in assay [1], 0.0952 µM; on Aurora-A it was 0.175 µM; against CDK1:Cyclin-B, 0.0127 µM.

In the case of `OCCn1cc(-c2ccnc(N[C@H]3CC[C@H](O)CC3)n2)c2cccnc21` [Cpd 72, trans-4-{4-[1-(2-Hydroxyethyl)-1H-pyrrolo[2,3-b]pyridin-3-yl]-pyrimidin-2-ylamino}-cyclohexanol], the IC50 against VEGF-R2 came out at 10 µM; in the assay with A375 malignant melanoma, 0.165 µM; in the assay on HCT-116 colon carcinoma it was 0.077 µM; in assay [1] it was 0.144 µM; on Aurora-A, 6.06 µM; at CDK1:Cyclin-B, 0.6 µM.

Take `Oc1ccc(Nc2nccc(-c3c[nH]c4ncccc34)n2)cc1` [Cpd 39, (4-Hydroxyphenyl)-[4-(1H-pyrrolo[2,3-b]pyridin-3-yl)-pyrimidin-2-yl]-amine]: the IC50 against VEGF-R2 was determined as 1.66 µM; in the assay on A375 malignant melanoma, 0.862 µM; in the assay on HCT-116 colon carcinoma, 0.242 µM; in assay [1], 0.384 µM; against Aurora-A, 0.735 µM; against CDK1:Cyclin-B, 0.168 µM.
